Measurements as given in PubChem BioAssay (NCI).
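Assay format: 96-well plates, 48-hour exposure. Here, GI50 denotes the concentration required for 50% inhibition of growth. TGI: total growth inhibition.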

Key:
Test in all cases: NCI tumour cell line growth inhibition, 48 h; in the data active = GI50 below about 0.43 µM; inactive = the rest
[1] = system: BT-549 breast
[2] = system: MOLT-4 leukemia
[3] = system: RXF 393 renal
[4] = system: SR leukemia
[5] = system: A498 renal
[6] = system: TK-10 renal
[7] = system: SF-539 CNS
[8] = system: HS 578T breast
[9] = system: IGROV1 ovarian
[10] = system: PC-3 prostate
[11] = system: SF-268 CNS
[12] = system: UO-31 renal
[13] = system: NCI-H522 lung
[14] = system: NCI-H460 lung
[15] = system: MCF7 breast
[16] = system: NCI/ADR-RES ovarian
[17] = system: SK-MEL-28 melanoma
[18] = system: M14 melanoma
[19] = system: ACHN renal
[20] = system: DU-145 prostate
[21] = system: SN12C renal
[22] = system: HOP-62 NSCLC
[23] = system: OVCAR-4 ovarian
[24] = system: OVCAR-5 ovarian
[25] = system: HOP-92 NSCLC
[26] = system: U251 CNS
[27] = system: LOX IMVI melanoma
[28] = system: K-562 leukemia

COc1ccc(C(=O)c2c(N)c(C#N)cn2-c2cccc(OC)c2)cc1
6.1 µM: TGI [3]
8.66 µM: TGI [8]
7.51 µM: TGI [13]
17.9 µM: TGI [2]
inactive: GI50 [1] 4.41 µM | GI50 [2] 3.65 µM | GI50 [3] 2.05 µM | GI50 [4] 0.775 µM | GI50 [5] 2.73 µM | GI50 [6] 6.14 µM | GI50 [7] 2.41 µM | GI50 [8] 2.42 µM | GI50 [9] 5 µM | GI50 [10] 3.75 µM | GI50 [11] 5.65 µM | GI50 [12] 5.42 µM | GI50 [13] 1.99 µM | GI50 [14] 3.41 µM | GI50 [15] 3.07 µM | GI50 [16] 2.35 µM | GI50 [17] 49.8 µM | GI50 [18] 2.51 µM | GI50 [19] 6.52 µM | GI50 [20] 4.7 µM | GI50 [21] 5.64 µM | GI50 [22] 4.12 µM | GI50 [23] 18 µM | GI50 [24] 7.36 µM | GI50 [25] 9.53 µM | GI50 [26] 3.45 µM | GI50 [27] 4.6 µM | GI50 [28] 0.707 µM
> 100 µM: TGI [1] | TGI [6] | TGI [9] | TGI [10] | TGI [11] | TGI [12] | TGI [14] | TGI [15] | TGI [16] | TGI [17] | TGI [18] | TGI [19] | TGI [20] | TGI [21] | TGI [22] | TGI [23] | TGI [24] | TGI [25] | TGI [26] | TGI [27]
14.4 µM: TGI [4]
8.52 µM: TGI [7]
7.8 µM: TGI [5]
